Source: US20200197533A1, “COMBINATION CANCER THERAPY USING CHIMERIC ANTIGEN RECEPTOR ENGINEERED NATURAL KILLER CELLS AS CHEMOTHERAPEUTIC DRUG CARRIERS” (priority 2017, published 2020)
“Also recorded” adds a separate entry of the source.

Legend:
[1] = test system: SKOV3 cells; assay: Cell viability (XTT) assay with cMLV(PTX); format: cell-based; settings: various concentrations of cMLV(PTX), compared with NK cells
Protocol: (§1) NK92 and SKOV3 cells were seeded in 96-well plates at 2×10^4 cells per well in 10% FBS-containing media and grown at 37° C. in the presence of 5% CO2 for 6 hours. Cells were incubated with various concentrations of cMLV (PTX) as previously described (Liu, Y, et al (2014). Codelivery of doxorubicin and paclitaxel by cross-linked multilamellar liposome enables synergistic antitumor activity. Mol Pharm 11: 1651-1661) and cell viability was assessed using the Cell Proliferation Kit II (XTT assay) from Roche Applied Science (Indianapolis, Ind.) according to the manufacturer's instructions. Cell viability percentage was determined by subtracting absorbance values obtained from media-only wells from the treated wells and then normalized by the control wells containing cells without drugs.

[2] = test system: NK92 cells; assay: Cell viability (XTT) assay with cMLV(PTX); format: cell-based, human; settings: various concentrations of cMLV(PTX)
Protocol: as §1

[3] = test system: lymphoma cells; settings: drug-loaded nanocapsules conjugated to murine T cells; cited from earlier work
[4] = test system: T cell carriers; settings: drug-loaded nanocapsules conjugated to murine T cells; cited from earlier work

Structure (SMILES)	cell viability of SKOV3 tumor cells exposed to PTX [1]	cell viability of NK92 carrier cells exposed to PTX [2]	killing of lymphoma cells [3]	toxicity to the T cell carriers [4]
CC(=O)O[C@H]1C(=O)[C@@]2(C)[C@H]([C@H](OC(=O)c3ccccc3)[C@]3(O)C[C@H](OC(=O)[C@H](O)[C@@H](NC(=O)c4ccccc4)c4ccccc4)C(C)=C1C3(C)C)[C@]1(OC(C)=O)CO[C@@H]1C[C@@H]2O [PTX, paclitaxel]	more sensitive to PTX; also recorded: can kill tumor cells	not NK92 cells		
CCc1c2c(nc3ccc(O)cc13)-c1cc3c(c(=O)n1C2)COC(=O)[C@]3(O)CC [SN-38]			effectively killed lymphoma cells	not toxic to the T cell carriers
